Source: US10442796B2, “2,3,5-substituted thiophene compound as protein kinase inhibitor” (KOREA INSTITUTE OF SCIENCE AND TECHNOLOGY, priority 2016, dated 2019)
Numbering of substitutions follows the chain as printed. Structures can show the parent of a compound that is named as a salt.

What was measured:
Assay in all cases: Growth inhibitory activity against Ba/F3 cell line
Type in all cases: cell-based
Parental Ba/F3 cells = settings: BaF3; Parental Ba/F3 with mouse IL-3 1 ng/mL; 72 hours; cell titer glo
Experimental: (§1) A Ba/F3 cell line expressing an FLT3 mutation gene was cultured in a culture solution including 90% RPMI, 10% FBS, and an antibiotic (Welgene). 100 uL of the Ba/F3 cell line was put into each of 5,000 wells of a TC-treated 96 well plate (SPL), and then 1 uL of a test compound diluted in dimethylsulfoxide (diluted for each 3 paint from a concentration of 1 mM, total 10 concentrations) was each injected thereinto. Thereafter, the resulting cell lines were incubated in a cell culture incubator for 72 hours. 50 uL of a cell titer glo (Promega) solution was added thereto, the resulting mixture was stored at room temperature for 10 minutes, and then the light emission intensity was measured by using a reader (Envision, PerkinElmer). The light emission intensity was shown as a graph for each final concentration of the test compound, and the GI50 value was obtained by using a Prism 5.0 (GraphPad) software.
A parental Ba/F3 cell line having no FLT3 mutation gene was cultured by using a culture solution supplemented with mouse IL-3 (R&D Systems), such that a final concentration became 1 ng/mL in the culture solution including 90% RPMI, 10% FBS, and an antibiotic (Welgene). The activity was measured by a method which is the same as described above.

FLT3-ITD Ba/F3 cells = biological target: T1, FLT3-ITD Ba/F3 cells (Homo sapiens, UniProt P36888, cells depend on it, form not given); settings: Ba/F3 expressing FLT3-ITD; 72 hours; cell titer glo; read-out: IC50 (uM) FLT3-ITD
T1 sequence (P36888 1-993): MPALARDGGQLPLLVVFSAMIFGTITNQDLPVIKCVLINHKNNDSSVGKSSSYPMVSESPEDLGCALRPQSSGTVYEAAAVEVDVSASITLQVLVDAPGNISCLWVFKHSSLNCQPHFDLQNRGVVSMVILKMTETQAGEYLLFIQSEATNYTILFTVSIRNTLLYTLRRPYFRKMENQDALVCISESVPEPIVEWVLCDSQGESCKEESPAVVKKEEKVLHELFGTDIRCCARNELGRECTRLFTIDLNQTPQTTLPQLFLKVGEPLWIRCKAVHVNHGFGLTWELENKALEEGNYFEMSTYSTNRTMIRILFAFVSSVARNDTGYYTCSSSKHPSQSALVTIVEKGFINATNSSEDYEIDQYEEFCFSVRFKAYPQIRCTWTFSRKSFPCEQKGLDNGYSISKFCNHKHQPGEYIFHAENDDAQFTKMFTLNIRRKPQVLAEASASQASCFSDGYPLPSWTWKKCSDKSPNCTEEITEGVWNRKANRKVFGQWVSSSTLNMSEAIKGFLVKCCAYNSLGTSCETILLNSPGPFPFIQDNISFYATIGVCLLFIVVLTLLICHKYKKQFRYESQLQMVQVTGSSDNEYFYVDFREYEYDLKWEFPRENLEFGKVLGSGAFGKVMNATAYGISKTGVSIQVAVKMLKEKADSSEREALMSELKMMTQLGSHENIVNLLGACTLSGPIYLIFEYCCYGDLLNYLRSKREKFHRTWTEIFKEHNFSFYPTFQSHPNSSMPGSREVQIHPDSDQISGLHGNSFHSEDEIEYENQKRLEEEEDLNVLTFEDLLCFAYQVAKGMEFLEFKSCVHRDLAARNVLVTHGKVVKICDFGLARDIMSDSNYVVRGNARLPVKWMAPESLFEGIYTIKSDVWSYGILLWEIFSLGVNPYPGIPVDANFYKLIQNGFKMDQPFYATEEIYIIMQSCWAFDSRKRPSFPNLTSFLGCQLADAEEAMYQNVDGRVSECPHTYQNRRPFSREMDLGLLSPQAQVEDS
Experimental: as §1

FLT3-D835Y Ba/F3 cells = biological target: T2, FLT3-D835Y Ba/F3 cells (Homo sapiens, UniProt P36888, D835Y, cells depend on it); settings: Ba/F3 expressing FLT3-D835Y; 72 hours; cell titer glo; read-out: IC50 (uM) FLT3-D835Y
T2 sequence (P36888 1-993 D835Y): T1 sequence (P36888 1-993) with D835Y
Experimental: as §1

GI50 (FLT3-ITD Ba/F3 cells) [µM] | GI50 (FLT3-D835Y Ba/F3 cells) [µM] | SMILES | IC50 (Parental Ba/F3 cells) [µM]
< 0.001 | 0.002 | NC(=O)Nc1cc(C#Cc2ccccc2)sc1C(=O)N[C@H]1CCCNC1 [Example 2, (S)-5-(phenylethynyl)-N-(piperidin-3-yl)-3-ureidothiophene-2-carboxamide] | 0.159
< 0.001 | 0.005 | NC(=O)Nc1cc(C#Cc2ccc(F)c(F)c2)sc1C(=O)N[C@H]1CCCNC1 [Example 14, (S)-5-((3,4-difluorophenyl)ethynyl)-N-(piperidin-3-yl)-3-ureidothiophene-2-carboxamide] | 0.269
0.028 | 0.268 | Cn1cc(C#Cc2cc(NC(N)=O)c(C(=O)N[C@H]3CCCNC3)s2)cn1 [Example 15, (S)-5-((l-methyl-1H-pyrazol-4-yl)ethynyl)-N-(piperidin-3-yl)-3-ureidothiophene-2-carboxamide trifluoroacetate] | 34.6
< 0.005 | 0.041 | N#Cc1cccc(C#Cc2cc(NC(N)=O)c(C(=O)N[C@H]3CCCNC3)s2)c1 [Example 6, (S)-5-((3-cyanophenyl)ethynyl)-N-(piperidin-3-yl)-3-ureidothiophene-2-carboxamide] | 1.59
1.93 | 11.5 | NC(=O)Nc1cc(CCc2cccc(F)c2)sc1C(=O)N[C@H]1CCCCNC1 [Example 54, (S)—N-(azepan-3-yl)-5-(3-fluorophenethyl)-3-ureidothiophene-2-carboxamide] | > 33
0.002 | 0.014 | NC(=O)Nc1cc(C#Cc2ccc(F)nc2)sc1C(=O)N[C@H]1CCCNC1 [Example 13, (S)-5-((6-fluoropyridin-3-yl)ethynyl)-N-(piperidin-3-yl)-3-ureidothiophene-2-carboxamide] | 2.22
0.01 | 0.3 | CCn1cc(C#Cc2cc(NC(N)=O)c(C(=O)N[C@H]3CCCCNC3)s2)cn1 [Example 43, (S)—N-(azepan-3-yl)-5-((l-ethyl-1H-pyrazol-4-yl)ethynyl)-3-ureidothiophene-2-carboxamide trifluoroacetate] | 4.1
0.007 | 0.18 | CS(=O)(=O)N1CCC(n2cc(C#Cc3cc(NC(N)=O)c(C(=O)N[C@H]4CCCNC4)s3)cn2)CC1 [Example 23, (S)-5-((1-(1-(methylsulfonyl)piperidin-4-yl)-1H-pyrazol-4-yl)ethynyl)-N-(piperidin-3-yl)-3-ureidothiophene-2-carboxamide] | > 5

Continued, compound first:

SMILES | GI50 (FLT3-ITD Ba/F3 cells) [µM] | GI50 (FLT3-D835Y Ba/F3 cells) [µM] | IC50 (Parental Ba/F3 cells) [µM]
NC(=O)Nc1cc(C#Cc2cccc([N+](=O)[O-])c2)sc1C(=O)N[C@H]1CCCNC1 [Example 5, (S)-5-((3-nitrophenyl)ethynyl)-N-(piperidin-3-yl)-3-ureidothiophene-2-carboxamide] | < 0.005 | 0.039 | 2.06
NC(=O)Nc1cc(C#Cc2ccc(Cl)cc2)sc1C(=O)N[C@H]1CCCNC1 [Example 8, (S)-5-((4-chlorophenyl)ethynyl)-N-(piperidin-3-yl)-3-ureidothiophene-2-carboxamide] | 0.001 | 0.01 | 0.36
NC(=O)Nc1cc(C#Cc2cccc(F)c2)sc1C(=O)NC1CCNC1 (stereo not drawn) [Example 40, 5-((3-fluorophenyl)ethynyl)-N-(pyrrolidin-3-yl)-3-ureidothiophene-2-carboxamide] | 0.164 | 0.925 | 14.9
NC(=O)Nc1cc(C#Cc2cccnc2)sc1C(=O)N[C@H]1CCCNC1 [Example 3, (S)—N-(piperidin-3-yl)-5-(pyridin-3-ylethynyl)-3-ureidothiophene-2-carboxamide] | < 0.005 | 0.05 | 6.46
NC(=O)Nc1cc(C#Cc2cccc(F)c2)sc1C(=O)N[C@H]1CCCCNC1 [Example 50, (S)—N-(azepan-3-yl)-5-((3-fluorophenyl)ethynyl)-3-ureidothiophene-2-carboxamide] | 0.023 | 0.228 | 7.8
NC(=O)Nc1cc(C#Cc2cn[nH]c2)sc1C(=O)N[C@H]1CCCCNC1 [Example 42, (S)-5-((1H-pyrazol-4-yl)ethynyl)-N-(azepan-3-yl)-3-ureidothiophene-2-carboxamide trifluoroacetate] | 0.137 | 4.01 | 54.4
Cc1ccc(C#Cc2cc(NC(N)=O)c(C(=O)N[C@H]3CCCNC3)s2)cc1 [Example 24, (S)—N-(piperidin-3-yl)-5-(p-tolylethynyl)-3-ureidothiophene-2-carboxamide] | 0.005 | 0.039 | 1.29
NC(=O)Nc1cc(C#Cc2n[nH]c3ccccc23)sc1C(=O)N[C@H]1CCCNC1 [Example 12, (S)-5-((1H-indazol-3-yl)ethynyl)-N-(piperidin-3-yl)-3-ureidothiophene-2-carboxamide] | 0.037 | 0.289 | > 10
COC(=O)c1ccc(C#Cc2cc(NC(N)=O)c(C(=O)N[C@H]3CCCNC3)s2)cc1 [Example 18, methyl (S)-4-((5-(piperidin-3-ylcarbamoyl)-4-ureidothiophen-2-yl)ethynyl)benzoate trifluoroacetate] | 0.003 | 0.011 | 0.454
COCCn1cc(C#Cc2cc(NC(N)=O)c(C(=O)N[C@H]3CCCCNC3)s2)cn1 [Example 45, (S)—N-(azepan-3-yl)-5-((1-(2-methoxyethyl)-1H-pyrazol-4-yl)ethynyl)-3-ureidothiophene-2-carboxamide trifluoroacetate] | 0.038 | 0.841 | 16.8
NC(=O)Nc1cc(C#Cc2ccccn2)sc1C(=O)N[C@H]1CCCNC1 [Example 10, (S)—N-(piperidin-3-yl)-5-(pyridin-2-ylethynyl)-3-ureidothiophene-2-carboxamide] | 0.005 | 0.041 | 4.62
